EPA's ToxValDB 9.5 (doi:10.2903/j.efsa.2011.2096)
In brackets after ≈: the same amount, converted by molar mass.

Legend:
[1] = test system: Typhlodromus pyri; experiment: LR50; higher = less toxic; conditions: not reported; mortality
[2] = test system: Aphidius rhopalosiphi; experiment: LR50; higher = less toxic; conditions: not reported; mortality
[3] = test system: Tagia sp.
[4] = test system: Apis mellifera; conditions: acute; duration: 48 hours; oral; unspecified; mortality
[5] = test system: Rattus norvegicus
[6] = test system: Lepomis macrochirus; conditions: acute; duration: 96 hours; mortality
[7] = test system: Colinus virginianus; conditions: mortality
[8] = test system: Pimephales promelas; conditions: chronic/long-term; duration: 21 days
[9] = test system: Oryctolagus sp.; conditions: developmental; development
[10] = test system: Anas platyrhynchos; conditions: oral, mortality
[11] = test system: Daphnia magna; conditions: chronic/long-term; duration: 21 days; reproduction
[12] = test system: Plant; conditions: chronic/long-term; seedling emergence
[13] = test system: Canidae; conditions: chronic; duration: 1 years; oral; Dog Other; body weight

O=c1c2cc(F)ccc2nc(-n2cncn2)n1-c1ccc(Cl)cc1Cl [Fluquinconazole]
LR50 [1]: < 149 g/ha | LR50 [2]: < 149 g/ha | LC50 ([3]; acute, duration: 14 days, mortality): > 1000 mg/kg | NOEC ([3]; chronic/long-term, duration: 56 days): 0.5 mg/kg | LD50 [4]: > 100 µg/piece | LD50 ([5]; acute, oral, mortality): 112 mg/kg-day | NOAEL ([5]; chronic, mortality): 0.9 mg/kg-day | NOAEL ([5]; developmental, development): 2 mg/kg-day | LC50 [6]: 1.34 µg/mL (≈ 3.56 µM) | LC50 ([7]; acute, oral, diet): 704 mg/kg-day | LD50 ([7]; acute, oral): > 2000 mg/kg-day | NOEC ([7]; reproduction developmental): 1.9 mg/kg-day | NOEC [8]: 0.154 mg/L | NOAEL [9]: 2 mg/kg-day | LD50 ([10]; acute, unspecified): > 2000 mg/kg-day | LC50 ([10]; short-term, feed): > 210 mg/kg-day | NOEC [11]: 0.648 mg/L | NOEC [12]: > 1000 g/ha | NOAEL [13]: 0.2 mg/kg-day
